US20110039721A1, “METHOD FOR PREDICTION ABOUT CARCINOGENICITY OF SUBSTANCE IN RODENT” (Chemicals Evaluation and Research Institute, priority 2007, published 2011)
Read-outs that look alike come from different tables or passages of the source.

Tests used:
[1] = cited from earlier work
[2] = system: mRNA expressed from the genes (A) to (D) in rat liver; assay: Behavior of genes (mRNA expression level, oligo-DNA microarray) in rat liver after 28-day oral administration; format: in vivo
Procedure, shortened: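 Liver mRNA measured by oligo-DNA microarray after 28 days of once-daily oral gavage in 5-week-old male F344 rats (n=4 per group), with vehicle controls given equal solvent volume. Significance threshold: 1.5-fold up or down versus control, with changes opposite in direction to other carcinogens counted as not significant.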

[3] = system: liver; conditions: cited from earlier work
[4] = system: rodent; conditions: cited from earlier work
[5] = classification of the substance (M+/M−)
[6] = gene group (A), Unigene No. Rn.167075
[7] = gene group (C), Unigene No. Rn.120914

SMILES: Cl.Cl.Nc1ccc(N)cc1 [TS059, p-Phenylenediamine 2HCl]
- Mutagenicity by Ames test [1, 5]: M+
- Behavior of gene caused by administration of chemical substance, Gene No. 4846 ([2]; gene group (A), Unigene No. Rn.144554): −
- Behavior of gene caused by administration of chemical substance, Gene No. 2026 [2, 6]: −
- Behavior of gene caused by administration of chemical substance, Gene No. 4218 [2, 6]: −
- Behavior of gene caused by administration of chemical substance, Gene No. 6182 ([2]; gene group (A), Unigene No. Rn.5834): −
- Behavior of gene caused by administration of chemical substance, Gene No. 5600 ([2]; gene group (A), Unigene No. Rn.9836): −
- Behavior of gene caused by administration of chemical substance, Gene No. 1494 ([2]; gene group (B), Unigene No. Rn.1430): −
- Behavior of gene caused by administration of chemical substance, Gene No. 2045 ([2]; gene group (B), Unigene No. Rn.19329): −
- Behavior of gene caused by administration of chemical substance, Gene No. 2203 ([2]; gene group (B), Unigene No. Rn.21240): −
- Behavior of gene caused by administration of chemical substance, Gene No. 533 ([2]; gene group (C), Unigene No. Rn.106184): −
- Behavior of gene caused by administration of chemical substance, Gene No. 725 ([2]; gene group (C), Unigene No. Rn.108075): −
- Behavior of gene caused by administration of chemical substance, Gene No. 1163 ([2]; gene group (C), Unigene No. Rn.11766): −
- Behavior of gene caused by administration of chemical substance, Gene No. 4973 ([2]; gene group (C), Unigene No. Rn.118529): +
- Behavior of gene caused by administration of chemical substance, Gene No. 4095 ([2]; gene group (C), Unigene No. Rn.119024): +
- Behavior of gene caused by administration of chemical substance, Gene No. 1334 [2, 7]: +
- Behavior of gene caused by administration of chemical substance, Gene No. 6620 [2, 7]: +
- Behavior of gene caused by administration of chemical substance, Gene No. 6303 ([2]; gene group (C), Unigene No. Rn.123063): −
- Behavior of gene caused by administration of chemical substance, Gene No. 5878 ([2]; gene group (C), Unigene No. Rn.143213): −
- Behavior of gene caused by administration of chemical substance, Gene No. 1131 ([2]; gene group (C), Unigene No. Rn.144946): −
- Behavior of gene caused by administration of chemical substance, Gene No. 1562 ([2]; gene group (C), Unigene No. Rn.14744): +
- Behavior of gene caused by administration of chemical substance, Gene No. 1741 ([2]; gene group (C), Unigene No. Rn.1647): +
- Behavior of gene caused by administration of chemical substance, Gene No. 893 ([2]; gene group (C), Unigene No. Rn.164817): +
- Behavior of gene caused by administration of chemical substance, Gene No. 6026 ([2]; gene group (C), Unigene No. Rn.167685): −
- Behavior of gene caused by administration of chemical substance, Gene No. 154 ([2]; gene group (C), Unigene No. Rn.185941): +
- Behavior of gene caused by administration of chemical substance, Gene No. 1993 ([2]; gene group (C), Unigene No. Rn.18728): +
- Behavior of gene caused by administration of chemical substance, Gene No. 813 ([2]; gene group (C), Unigene No. Rn.201760): −
- Behavior of gene caused by administration of chemical substance, Gene No. 2494 ([2]; gene group (C), Unigene No. Rn.23969): −
- Behavior of gene caused by administration of chemical substance, Gene No. 2546 ([2]; gene group (C), Unigene No. Rn.24561): +
- Behavior of gene caused by administration of chemical substance, Gene No. 3776 ([2]; gene group (C), Unigene No. Rn.43232): +
- Behavior of gene caused by administration of chemical substance, Gene No. 3929 ([2]; gene group (C), Unigene No. Rn.4620): +
- Behavior of gene caused by administration of chemical substance, Gene No. 1119 ([2]; gene group (C), Unigene No. Rn.9757): +
- Behavior of gene caused by administration of chemical substance, Gene No. 6742 ([2]; gene group (C), Unigene No. Rn.9779): −
- Behavior of gene caused by administration of chemical substance, Gene No. 5634 ([2]; gene group (C), Unigene No. Rn.9862): +
- Behavior of gene caused by administration of chemical substance, Gene No. 5726 ([2]; gene group (D), Unigene No. Rn.9939): +
- Liver carcinogenicity ([3]; classification of the substance (Cr+/Cr−)): Cr−
- Carcinogenicity ([4]; classification of the substance (C+/C−)): C−

SMILES: CC(=O)Nc1cccc2c1-c1ccccc1C2 [TS061, 4-Acetylaminofluorene]
- Mutagenicity by Ames test ([1]; classification M+/M−): M+
- Behavior of gene caused by administration of chemical substance ([2]; Gene No. 154, Rn.185941, group (C)): −
- Behavior of gene caused by administration of chemical substance ([2]; Gene No. 533, Rn.106184, group (C)): −
- Behavior of gene caused by administration of chemical substance ([2]; Gene No. 725, Rn.108075, group (C)): −
- Behavior of gene caused by administration of chemical substance ([2]; Gene No. 813, Rn.201760, group (C)): −
- Behavior of gene caused by administration of chemical substance ([2]; Gene No. 893, Rn.164817, group (C)): −
- Behavior of gene caused by administration of chemical substance ([2]; Gene No. 1119, Rn.9757, group (C)): −
- Behavior of gene caused by administration of chemical substance ([2]; Gene No. 1131, Rn.144946, group (C)): −
- Behavior of gene caused by administration of chemical substance ([2]; Gene No. 1163, Rn.11766, group (C)): +
- Behavior of gene caused by administration of chemical substance ([2]; Gene No. 1334, Rn.120914, group (C)): −
- Behavior of gene caused by administration of chemical substance ([2]; Gene No. 1494, Rn.1430, group (B)): −
- Behavior of gene caused by administration of chemical substance ([2]; Gene No. 1562, Rn.14744, group (C)): −
- Behavior of gene caused by administration of chemical substance ([2]; Gene No. 1741, Rn.1647, group (C)): −
- Behavior of gene caused by administration of chemical substance ([2]; Gene No. 1993, Rn.18728, group (C)): −
- Behavior of gene caused by administration of chemical substance ([2]; Gene No. 2026, Rn.167075, group (A)): +
- Behavior of gene caused by administration of chemical substance ([2]; Gene No. 2045, Rn.19329, group (B)): −
- Behavior of gene caused by administration of chemical substance ([2]; Gene No. 2203, Rn.21240, group (B)): −
- Behavior of gene caused by administration of chemical substance ([2]; Gene No. 2494, Rn.23969, group (C)): −
- Behavior of gene caused by administration of chemical substance ([2]; Gene No. 2546, Rn.24561, group (C)): −
- Behavior of gene caused by administration of chemical substance ([2]; Gene No. 3776, Rn.43232, group (C)): −
- Behavior of gene caused by administration of chemical substance ([2]; Gene No. 3929, Rn.4620, group (C)): −
- Behavior of gene caused by administration of chemical substance ([2]; Gene No. 4095, Rn.119024, group (C)): −
- Behavior of gene caused by administration of chemical substance ([2]; Gene No. 4218, Rn.167075, group (A)): −
- Behavior of gene caused by administration of chemical substance ([2]; Gene No. 4846, Rn.144554, group (A)): +
- Behavior of gene caused by administration of chemical substance ([2]; Gene No. 4973, Rn.118529, group (C)): −
- Behavior of gene caused by administration of chemical substance ([2]; Gene No. 5600, Rn.9836, group (A)): −
- Behavior of gene caused by administration of chemical substance ([2]; Gene No. 5634, Rn.9862, group (C)): −
- Behavior of gene caused by administration of chemical substance ([2]; Gene No. 5726, Rn.9939, group (D)): −
- Behavior of gene caused by administration of chemical substance ([2]; Gene No. 5878, Rn.143213, group (C)): −
- Behavior of gene caused by administration of chemical substance ([2]; Gene No. 6026, Rn.167685, group (C)): −
- Behavior of gene caused by administration of chemical substance ([2]; Gene No. 6182, Rn.5834, group (A)): +
- Behavior of gene caused by administration of chemical substance ([2]; Gene No. 6303, Rn.123063, group (C)): −
- Behavior of gene caused by administration of chemical substance ([2]; Gene No. 6620, Rn.120914, group (C)): −
- Behavior of gene caused by administration of chemical substance ([2]; Gene No. 6742, Rn.9779, group (C)): −
- Liver carcinogenicity ([3]; classification Cr+/Cr−): Cr−
- Carcinogenicity ([4]; classification C+/C−): C−

SMILES: Cc1c(C)c2c(c(C)c1O)CC[C@@](C)(CCC[C@H](C)CCC[C@H](C)CCCC(C)C)O2 [TS062, α-Tocopherol (Vitamin E)]
- Mutagenicity by Ames test [1, 5]: M−
- Behavior of gene caused by administration of chemical substance, Gene No. 154 ([2]; rat, in vivo): −
- Behavior of gene caused by administration of chemical substance, Gene No. 533 ([2]; rat, in vivo): −
- Behavior of gene caused by administration of chemical substance, Gene No. 725 ([2]; rat, in vivo): −
- Behavior of gene caused by administration of chemical substance, Gene No. 813 ([2]; rat, in vivo): −
- Behavior of gene caused by administration of chemical substance, Gene No. 893 ([2]; rat, in vivo): −
- Behavior of gene caused by administration of chemical substance, Gene No. 1119 ([2]; rat, in vivo): −
- Behavior of gene caused by administration of chemical substance, Gene No. 1131 ([2]; rat, in vivo): −
- Behavior of gene caused by administration of chemical substance, Gene No. 1163 ([2]; rat, in vivo): +
- Behavior of gene caused by administration of chemical substance, Gene No. 1334 ([2]; rat, in vivo): −
- Behavior of gene caused by administration of chemical substance, Gene No. 1494 ([2]; rat, in vivo): −
- Behavior of gene caused by administration of chemical substance, Gene No. 1562 ([2]; rat, in vivo): −
- Behavior of gene caused by administration of chemical substance, Gene No. 1741 ([2]; rat, in vivo): −
- Behavior of gene caused by administration of chemical substance, Gene No. 1993 ([2]; rat, in vivo): −
- Behavior of gene caused by administration of chemical substance, Gene No. 2026 ([2]; rat, in vivo): −
- Behavior of gene caused by administration of chemical substance, Gene No. 2045 ([2]; rat, in vivo): −
- Behavior of gene caused by administration of chemical substance, Gene No. 2203 ([2]; rat, in vivo): −
- Behavior of gene caused by administration of chemical substance, Gene No. 2494 ([2]; rat, in vivo): −
- Behavior of gene caused by administration of chemical substance, Gene No. 2546 ([2]; rat, in vivo): −
- Behavior of gene caused by administration of chemical substance, Gene No. 3776 ([2]; rat, in vivo): −
- Behavior of gene caused by administration of chemical substance, Gene No. 3929 ([2]; rat, in vivo): −
- Behavior of gene caused by administration of chemical substance, Gene No. 4095 ([2]; rat, in vivo): −
- Behavior of gene caused by administration of chemical substance, Gene No. 4218 ([2]; rat, in vivo): −
- Behavior of gene caused by administration of chemical substance, Gene No. 4846 ([2]; rat, in vivo): −
- Behavior of gene caused by administration of chemical substance, Gene No. 4973 ([2]; rat, in vivo): −
- Behavior of gene caused by administration of chemical substance, Gene No. 5600 ([2]; rat, in vivo): −
- Behavior of gene caused by administration of chemical substance, Gene No. 5634 ([2]; rat, in vivo): −
- Behavior of gene caused by administration of chemical substance, Gene No. 5726 ([2]; rat, in vivo): −
- Behavior of gene caused by administration of chemical substance, Gene No. 5878 ([2]; rat, in vivo): −
- Behavior of gene caused by administration of chemical substance, Gene No. 6026 ([2]; rat, in vivo): −
- Behavior of gene caused by administration of chemical substance, Gene No. 6182 ([2]; rat, in vivo): −
- Behavior of gene caused by administration of chemical substance, Gene No. 6303 ([2]; rat, in vivo): −
- Behavior of gene caused by administration of chemical substance, Gene No. 6620 ([2]; rat, in vivo): −
- Behavior of gene caused by administration of chemical substance, Gene No. 6742 ([2]; rat, in vivo): +
- Liver carcinogenicity ([3]; in vivo): Cr−
- Carcinogenicity ([4]; in vivo): C−
